Source: publication PMC4104029, “Mechanism of Action of Compound-13: An α1-Selective Small Molecule Activator of AMPK” (Chemistry & Biology, 2014)

System: 5′-nucleotidase
Assay: 5′-Nucleotidase assay
Assay type: biochemical
Conditions: concentrations up to 100 μM; data not shown
Protocol: Additional enzyme assays. Glycogen phosphorylase (EC 2.4.1.1) was assayed in the physiological direction in reactions containing 20 mM BES pH 6.8, 20 mM phosphate, 1 mM NADP+, 0.5 mM MgCl2, 0.1 % glycogen, 4 µM glucose-1,6-bisphosphate, 0.5 mM DTT, 0.025 % BSA, 0.6 U/ml phosphoglucomutase and 3 U/ml glucose-6-phosphate dehydrogenase (G6PDH). FBP1 (EC 3.1.3.11) was assayed in reactions containing 50 mM TES pH 7.4, 0.1 […]
mM 2-mercaptoethanol, 25 µM fructose-1,6-bisphosphate, 0.8 U/ml phosphoglucoisomerase and 0.5 U/ml G6PDH. PFK1 (EC 2.7.1.11) was assayed in reactions containing 50 mM TES pH 7.4, 2 mM MgCl2, 0.05 % BSA, 2 mM 2-mercaptoethanol, 0.5 mM fructose-6-phosphate, 1 mM ATP, 0.2 mM NADH, 0.5 U/ml aldolase, 15 U/ml triosephosphate isomerase and 2 U/ml α-glycerophosphate dehydrogenase. […] All assays were performed in a final volume of 250 µl and were monitored by changes in fluorescence (FBP1 - λex 340nm, λem 450nm) or A340. […] Liberated phosphate was determined using malachite green reagent. […] The formation of pyrophosphate (PPi) was monitored by reduction of PPi-molybdate complexes using 2-mercaptoethanol and Fiske-Subbarow reducer (Kuang, et al., 2007). […]
Tricistronic expression vectors were constructed using a strategy inspired by Neumann et al (Neumann, et al., 2003). […] The open reading frame of AMPKα1 and AMPKα2 was inserted after the 6×His tag as a Bamh1-Not1 fragment. […]

## O=P(O)(O)c1ccc(-c2cc(O)on2)o1 [Compound C2, 5-(5-hydroxyl-isoxazol-3-yl)-furan-2-phosphonic acid]
  effect on enzyme activity: None of these enzymes were affected
